The experiment concerns the target NaV 1.8 channel (Homo sapiens, UniProt Q9Y5Y9). As to the kind of experiment: Activity against NaV 1.8 channel (optical membrane potential assay). Format: cell-based. As for the experimental part:
Compounds of the invention are useful as antagonists of voltage-gated sodium ion channels. Antagonist properties of test compounds were assessed as follows. Cells expressing the NaV of interest were placed into microtiter plates. After an incubation period, the cells were stained with fluorescent dyes sensitive to the transmembrane potential. The test compounds were added to the microtiter plate. The cells were stimulated with either a chemical or electrical means to evoke a NaV dependent membrane potential change from unblocked channels, which was detected and measured with trans-membrane potential-sensitive dyes. Antagonists were detected as a decreased membrane potential response to the stimulus. The optical membrane potential assay utilized voltage-sensitive FRET sensors described by Gonzalez and Tsien (See, Gonzalez, J. E. and R. Y. Tsien (1995) “Voltage sensing by fluorescence resonance energy transfer in single cells” Biophys J 69(4): 1272-80, and Gonzalez, J. E. and R. Y. Tsien (1997) “Improved indicators of cell membrane potential that use fluorescence resonance energy transfer” Chem Biol 4(4): 269-77) in combination with instrumentation for measuring fluorescence changes such as the Voltage/Ion Probe Reader (VIPR®) (See, Gonzalez, J. E., K. Oades, et al. (1999) “Cell-based assays and instrumentation for screening ion-channel targets” Drug Discov Today 4(9): 431-439).
24 hours before the assay on VIPR, CHO cells endogenously expressing a NaV1.2 type voltage-gated NaV are seeded in 96-well poly-lysine coated plates at 60,000 cells per well. Other subtypes are performed in an analogous mode in a cell line expressing the NaV of interest. • 1) On the day of the assay, medium is aspirated and cells are washed twice with 225 μL of Bath Solution #2 (BS#2). • 2) A 15 uM CC2-DMPE solution is prepared by mixing 5 mM coumarin stock solution with 10% Pluronic 127 1:1 and then dissolving the mix in the appropriate volume of BS#2. • 3) After bath solution is removed from the 96-well plates, the cells are loaded with 80 μL of the CC2-DMPE solution. Plates are incubated in the dark for 30 minutes at room temperature. • 4) While the cells are being stained with coumarin, a […] solution in BS#2 is prepared. In addition to DiSBAC2(3), this solution should contain 0.75 mM ABSCl and […] (prepared from 10 mM EtOH stock, Sigma #V-5754). • 5) After 30 minutes, CC2-DMPE is removed and the cells are washed twice with 225 μL of BS#2. As before, the residual volume should be 40 μL. • 6) Upon removing the bath, the cells are loaded with 80 μL of the DiSBAC2(3) solution, after which test compound, dissolved in DMSO, is added to achieve the desired test concentration to each well from the drug addition plate and mixed thoroughly. The volume in the well should be roughly 121 μL. The cells are then incubated for 20-30 minutes. • 7) Once the incubation is complete, the cells are ready to be assayed on VIPR® with a sodium add back protocol. 120 μL of Bath solution #1 is added to stimulate the NaV dependent depolarization. […] was used as an antagonist positive control for block of the NaV channel.
Data are analyzed and reported as normalized ratios of background-subtracted emission intensities measured in the 460 nm and 580 nm channels. Background intensities are then subtracted from each assay channel. Background intensities are obtained by measuring the emission intensities during the same time periods from identically treated assay wells in which there are no cells. The response as a function of time is then reported as the ratios obtained using the following formula: […]
The data is further reduced by calculating the initial (Ri) and final (Rf) ratios. These are the average ratio values during part or all of the pre-stimulation period, and during sample points during the stimulation period. The response to the stimulus R=Rf/Ri is then calculated. […]

For 27 compounds, IC50 results are on record in US7928107B2, “Quinazolines useful as modulators of ion channels” (Vertex Pharmaceuticals Incorporated, priority 2004, dated 2011).

The structures appear in SMILES notation.

NaV 1.8 channel, sequence (Q9Y5Y9 whole entry): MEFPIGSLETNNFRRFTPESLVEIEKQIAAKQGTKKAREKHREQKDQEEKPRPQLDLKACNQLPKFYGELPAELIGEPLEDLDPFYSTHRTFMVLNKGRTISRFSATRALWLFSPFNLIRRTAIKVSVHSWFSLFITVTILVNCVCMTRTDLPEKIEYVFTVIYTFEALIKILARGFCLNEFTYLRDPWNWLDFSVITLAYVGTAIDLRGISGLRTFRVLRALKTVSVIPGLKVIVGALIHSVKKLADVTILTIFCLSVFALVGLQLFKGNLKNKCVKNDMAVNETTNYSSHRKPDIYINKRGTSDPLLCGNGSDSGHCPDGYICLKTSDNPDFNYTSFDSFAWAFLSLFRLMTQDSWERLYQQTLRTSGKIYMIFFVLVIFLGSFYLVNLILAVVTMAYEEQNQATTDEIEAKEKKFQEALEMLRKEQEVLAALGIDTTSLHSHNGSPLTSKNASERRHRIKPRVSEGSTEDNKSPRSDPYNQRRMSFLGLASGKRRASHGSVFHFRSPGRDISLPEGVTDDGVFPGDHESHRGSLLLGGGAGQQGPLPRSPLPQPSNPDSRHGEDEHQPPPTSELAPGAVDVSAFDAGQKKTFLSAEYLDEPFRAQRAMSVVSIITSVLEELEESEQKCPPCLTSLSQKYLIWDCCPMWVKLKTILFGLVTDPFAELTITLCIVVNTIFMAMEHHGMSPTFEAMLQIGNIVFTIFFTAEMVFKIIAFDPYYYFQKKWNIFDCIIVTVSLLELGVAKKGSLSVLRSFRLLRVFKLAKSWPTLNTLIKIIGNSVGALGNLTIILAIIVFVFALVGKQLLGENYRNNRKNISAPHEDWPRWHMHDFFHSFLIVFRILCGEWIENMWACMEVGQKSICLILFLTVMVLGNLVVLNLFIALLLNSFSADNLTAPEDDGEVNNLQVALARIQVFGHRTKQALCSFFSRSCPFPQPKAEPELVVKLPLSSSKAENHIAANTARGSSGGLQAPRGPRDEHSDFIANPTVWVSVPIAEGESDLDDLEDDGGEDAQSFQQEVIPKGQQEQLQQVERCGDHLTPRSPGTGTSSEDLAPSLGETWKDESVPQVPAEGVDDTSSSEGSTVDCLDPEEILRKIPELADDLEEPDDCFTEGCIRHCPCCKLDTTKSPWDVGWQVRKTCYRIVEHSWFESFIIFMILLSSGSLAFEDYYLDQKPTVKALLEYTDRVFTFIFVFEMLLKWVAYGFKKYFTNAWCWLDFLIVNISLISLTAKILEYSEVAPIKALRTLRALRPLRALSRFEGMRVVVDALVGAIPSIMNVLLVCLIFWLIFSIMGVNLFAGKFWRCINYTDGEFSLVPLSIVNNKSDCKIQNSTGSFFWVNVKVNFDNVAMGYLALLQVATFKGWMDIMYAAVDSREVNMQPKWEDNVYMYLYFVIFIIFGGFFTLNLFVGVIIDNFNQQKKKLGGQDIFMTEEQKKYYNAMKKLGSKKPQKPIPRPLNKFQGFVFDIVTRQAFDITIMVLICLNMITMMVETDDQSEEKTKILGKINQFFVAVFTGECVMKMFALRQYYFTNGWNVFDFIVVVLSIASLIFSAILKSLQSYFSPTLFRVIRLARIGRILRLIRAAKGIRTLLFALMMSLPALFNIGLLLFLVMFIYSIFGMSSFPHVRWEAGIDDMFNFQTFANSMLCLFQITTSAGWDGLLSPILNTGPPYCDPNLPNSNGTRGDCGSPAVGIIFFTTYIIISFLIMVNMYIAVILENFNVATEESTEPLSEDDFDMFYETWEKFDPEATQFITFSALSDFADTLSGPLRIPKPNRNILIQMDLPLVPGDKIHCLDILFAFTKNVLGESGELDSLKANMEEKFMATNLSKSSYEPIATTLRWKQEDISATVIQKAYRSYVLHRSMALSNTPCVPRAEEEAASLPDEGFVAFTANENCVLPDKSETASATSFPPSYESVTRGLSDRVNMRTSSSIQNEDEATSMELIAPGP

Take `Cc1ccc2c(N3CCC(NC(=O)[C@H]4CCCO4)C3)nc(-c3ccccc3O)nc2c1` (stereo in doubt) [Example 303, (2R)-Tetrahydro-N—((S)-1-(2-(2-hydroxyphenyl)-7-methylquinazolin-4-yl)pyrrolidin-3-yl)furan-2-carboxamide]: the IC50 was in the range of 2 to 10 µM.
As for `Cc1ccc2c(N3CCN(C(=O)[C@H](O)CC(C)(C)C)CC3)nc(-c3ccccc3O)nc2c1` [Example 101, (R)-2-Hydroxy-1-(4-(2-(2-hydroxyphenyl)-7-methylquinazolin-4-yl)piperazin-1-yl)-4,4-dimethylpentan-1-one], the IC50 was less than 2 µM.
On to `CC(C)C[C@@H](O)C(=O)N1CCN(c2nc(-c3ccccc3O)nc3ccccc23)CC1` [Example 102, (R)-2-Hydroxy-1-(4-(2-(2-hydroxyphenyl)quinazolin-4-yl)piperazin-1-yl)-4-methylpentan-1-one], for which the IC50 was 2 to 10 µM.
Then `Cc1ccc2c(N3CCN(C(=O)OCc4cccc5c4OCO5)CC3)nc(-c3ccccc3O)nc2c1` [Example 103, (Benzo[d][1,3]dioxol-7-yl)methyl 4-(2-(2-hydroxyphenyl)-7-methylquinazolin-4-yl)piperazine-1-carboxylate], with greater than 10 µM; and `Cc1ccc2c(N3CCN(C(=O)[C@H](O)CC(=O)N(C)C)CC3)nc(-c3ccccc3O)nc2c1` [Example 104, (R)-3-Hydroxy-4-(4-(2-(2-hydroxyphenyl)-7-methylquinazolin-4-yl)piperazin-1-yl)-N,N-dimethyl-4-oxobutanamide], with greater than 10 µM.
Then `Cc1ccc2c(N3CCN(C(=O)CC4CCOCC4)CC3)nc(-c3ccccc3O)nc2c1` [Example 105], with 2 to 10 µM; and `Cc1ccc2c(N3CCN(C(=O)[C@H](O)CC(C)C)[C@@H](CO)C3)nc(-c3ccccc3O)nc2c1` [Example 106, (R)-2-Hydroxy-1-((R)-2-(hydroxymethyl)-4-(2-(2-hydroxyphenyl)-7-methylquinazolin-4-yl)piperazin-1-yl)-4-methylpentan-1-one], with greater than 10 µM; and `O=C(OCc1cccnc1)N1CCN(c2nc(-c3ccccc3O)nc3ccccc23)CC1` [Example 107, (Pyridin-3-yl)methyl 4-(2-(2-hydroxyphenyl)quinazolin-4-yl)piperazine-1-carboxylate], with 2 to 10 µM.
Then `Cc1ccc2c(N3CCN(C(=O)C(C)(C)O)CC3)nc(-c3ccccc3O)nc2c1` [Example 108, 2-Hydroxy-1-(4-(2-(2-hydroxyphenyl)-7-methylquinazolin-4-yl)piperazin-1-yl)-2-methylpropan-1-one], with 2 to 10 µM; and `C[C@H](O)CC(=O)N1CCN(c2nc(-c3ccccc3O)nc3ccccc23)CC1` [Example 109, (S)-3-Hydroxy-1-(4-(2-(2-hydroxyphenyl)quinazolin-4-yl)piperazin-1-yl)butan-1-one], with 2 to 10 µM; and `Cc1ccc2c(N3CCN(C(=O)C(C)(O)C(F)(F)F)CC3)nc(-c3ccccc3O)nc2c1` (stereo not drawn) [Example 110, 2-(Trifluoromethyl)-2-hydroxy-1-(4-(2-(2-hydroxyphenyl)-7-methylquinazolin-4-yl)piperazin-1-yl)propan-1-one], with greater than 10 µM.
For the compound `CC(C)(C)C[C@@H](O)C(=O)N1CCN(c2nc(-c3ccccc3O)nc3ccc(F)cc23)CC1` [Example 111, (R)-1-(4-(6-Fluoro-2-(2-hydroxyphenyl)quinazolin-4-yl)piperazin-1-yl)-2-hydroxy-4,4-dimethylpentan-1-one], the IC50 was greater than 10 µM.
Take `Cc1ccc2c(N3CCN(C(=O)C(O)CC(F)(F)F)CC3)nc(-c3ccccc3O)nc2c1` (stereo not drawn) [Example 112, 4,4,4-Trifluoro-2-hydroxy-1-(4-(2-(2-hydroxyphenyl)-7-methylquinazolin-4-yl)piperazin-1-yl)butan-1-one]: the IC50 was greater than 10 µM.
Turning to `Cc1ccc2c(N3CCN(C(=O)C(O)C(C)C)CC3)nc(-c3ccccc3O)nc2c1` (stereo not drawn) [Example 113, 2-Hydroxy-1-(4-(2-(2-hydroxyphenyl)-7-methylquinazolin-4-yl)piperazin-1-yl)-3-methylbutan-1-one], the IC50 lay within 2 to 10 µM.
In the case of `Cc1ccc2c(N3CCN(C(=O)OCc4ccncc4)CC3)nc(-c3c(O)cccc3F)nc2c1` [Example 114, (Pyridin-4-yl)methyl 4-(2-(2-fluoro-6-hydroxyphenyl)-7-methylquinazolin-4-yl)piperazine-1-carboxylate], the IC50 was in the range of 2 to 10 µM.
Then `CCC(O)(CC)C(=O)N1CCN(c2nc(-c3ccccc3O)nc3ccccc23)CC1` [Example 115, 2-Ethyl-2-hydroxy-1-(4-(2-(2-hydroxyphenyl)quinazolin-4-yl)piperazin-1-yl)butan-1-one], with greater than 10 µM; and `O=C(OCc1ccncc1)N1CCN(c2nc(-c3ccccc3O)nc3ccccc23)CC1` [Example 116, (Pyridin-4-yl)methyl 4-(2-(2-hydroxyphenyl)quinazolin-4-yl)piperazine-1-carboxylate], with 2 to 10 µM; and `O=C(O[C@H]1CCOC1)N1CCN(c2nc(-c3ccccc3O)nc3ccc(F)cc23)CC1` [Example 117, (S)-Tetrahydrofuran-3-yl 4-(6-fluoro-2-(2-hydroxyphenyl)quinazolin-4-yl)piperazine-1-carboxylate], with 2 to 10 µM.
For `CC[C@@H](O)C(=O)N1CCN(c2nc(-c3ccccc3O)nc3ccccc23)CC1` [Example 118, (R)-2-Hydroxy-1-(4-(2-(2-hydroxyphenyl)quinazolin-4-yl)piperazin-1-yl)butan-1-one], the 50% inhibitory concentration (IC50) is 2 to 10 µM.
Then `Cc1ccc2c(N3CCN(C(=O)O[C@H]4CCOC4)CC3CO)nc(-c3ccccc3O)nc2c1` (stereo partly drawn) [Example 119, (S)-3-Hydroxymethyl-4-[2-(2-hydroxyphenyl)-7-methyl-quinazolin-4-yl]-piperazine-1-carboxylic acid tetrahydro-furan-3-yl ester], with greater than 10 µM; and `CCCCC(O)C(=O)N1CCN(c2nc(-c3ccccc3O)nc3cc(C)ccc23)CC1` (stereo not drawn) [Example 120], with 2 to 10 µM.
Turning to `CCC(O)(CC)C(=O)N1CCN(c2nc(-c3ccccc3O)nc3cc(C)ccc23)CC1` [Example 122, 2-Ethyl-2-hydroxy-1-(4-(2-(2-hydroxyphenyl)-7-methylquinazolin-4-yl)piperazin-1-yl)butan-1-one], the IC50 is 2 to 10 µM.
Then `CC(C)C[C@@H](O)C(=O)N1CCN(c2nc(-c3ccccc3O)nc3cc(C(=O)O)ccc23)CC1` [Example 123, 4-[4-((R)-2-Hydroxy-4-methyl-pentanoyl)-piperazin-1-yl]-2-(2-hydroxy-phenyl)-quinazoline-7-carboxylic acid], with greater than 10 µM.
Then `CC[C@H](O)C(=O)N1CCN(c2nc(-c3ccccc3O)nc3cc(C)ccc23)CC1` [Example 124, (S)-2-Hydroxy-1-(4-(2-(2-hydroxyphenyl)-7-methylquinazolin-4-yl)piperazin-1-yl)butan-1-one], with greater than 10 µM.
Then `Cc1ccc2c(N3CCN(C(=O)[C@H](O)CC(C)(C)F)CC3)nc(-c3ccccc3O)nc2c1` [Example 125, (R)-4-Fluoro-2-hydroxy-1-{4-[2-(2-hydroxy-phenyl)-7-methyl-quinazolin-4-yl]-piperazin-1-yl}-4-methyl-pentan-1-one], with greater than 10 µM; and `Cc1ccc2c(N3CCN(C(=O)Oc4ccccc4)CC3CO)nc(-c3ccccc3O)nc2c1` (stereo not drawn) [Example 126, 3-Hydroxymethyl-4-[2-(2-hydroxy-phenyl)-7-methyl-quinazolin-4-yl]-piperazine-1-carboxylic acid phenyl ester], with greater than 10 µM.
Take `Cc1ccc2c(N3CCN(C(=O)CCC4CCCC4)CC3)nc(-c3ccccc3O)nc2c1` [Example 127, 3-Cyclopentyl-1-(4-(2-(2-hydroxyphenyl)-7-methylquinazolin-4-yl)piperazin-1-yl)propan-1-one]: the IC50 was less than 2 µM.
